Experimental data published in patent US11028137B2, “Mutant islet amyloid polypeptides with improved solubility and methods for using the same” (priority 2017, dated 2021).
Where a SMILES comes first, the peptide text is derived from it.

Columns and labels:
[1] = Transmission electron microscopy (TEM) of amyloid aggregates; format: physicochemical; settings: for amyloid aggregates in TEM images: after 7 days of incubation, end of kinetic experiment
Method: Transmission Electron Microscopy (TEM). TEM images were recorded using an FEI Bio TwinG^2 Transmission Electron Microscope at the central microscopy center at Stony Brook University. 15 μL aliquots of the samples used for fluorescence assays were removed at the end of each kinetic experiment, blotted on a carbon formvar-coated 300-mesh copper grid for 1 min and then negatively stained with saturated uranyl acetate for 1 min. Images were taken at a 68,000× magnification and 100 nm under focus. Mutant-hIAPP polypeptides of the present disclosure were further analyzed using TEM. […] In contrast, no amyloid fibrils were formed after a 1 week (FIGS. 3B-E, left) or 6 week (FIGS. 3B-E, right) culture with the any of the mutant-hIAPP analogs tested.

[2] = pH 7.4
Method: Dry peptides were dissolved into 10 mM PBS buffer at pH 7.4 at different initial concentrations, and were incubated for 7 days at 25° C. without stirring. Each sample was then centrifuged using a Beckman Coulter Microfuge 22R Centrifuge at 24° C. for 20 min. The relative centrifugal force used was 1.75×10^4 g. Solubility of each sample was approximated by measuring the absorbance of the corresponding supernatant at 280 nm measured using a Beckman Coulter DU 730 UV/Vis Spectrophotometer.
Each peptide tested was incubated in 10 mM PBS buffer at pH 7.4 for 7 days at three different concentrations (100 μM, 500 μM and 1 mM) and the solution was then centrifuged. The apparent solubility was represented by the absorbance of the supernatant of each sample measured at 280 nm. The extinction coefficients of all polypeptides are very similar at 280 nm since they all contain the same aromatic residues and each contains a disulfide bond. […] A peptide which is soluble at 1 mM and above will show a linear dependence of absorbance on initial concentration. A peptide which is less soluble will deviate from linearity. The peptides were centrifuged after 7 days and their apparent solubility measured by measuring the absorbance at 280 nm of the supernatant of each solution. The apparent concentration refers to the concentration which would be obtained if all of the peptide dissolved. The absorbance of the supernatant is directly proportion to the amount of peptide in solution.

[3] = Thioflavin-T fluorescence assay of amyloid formation kinetics; format: physicochemical; settings: 16 μM peptide, 10 mM PBS pH 7.4, 25° C., no stirring; for amyloid formation monitored by thioflavin-T fluorescence: 1 week and 6 week incubations
Method: Sample Preparation. Each peptide was dissolved into 100% hexafluoroisoproponal (HFIP) to make a 0.5 mM stock solution. Stock solutions were filtered using […] Acrodisc syringe filter with a GHP membrane and the required amount of peptide was lyophilized overnight to remove HFIP. Dry peptide was dissolved into the appropriate buffer for the fluorescence assays. Fluorescence Assays. Thioflavin-T binding assays, conducted without HFIP or stirring at 25° C., were utilized to monitor amyloid formation kinetics. Fluorescence measurements were performed using a Spectramax Gemini EM plate reader. Corning 96-well non-binding surface black plates with lids were used and were sealed with polyethylene sealing tape. Samples were prepared by dissolving dry peptide into 10 mM PBS buffer (pH 7.4) and 32 μM thioflavin-T solution immediately before the measurement. Thioflavin-T fluorescence was measured with 450 nm excitation and emission at 485 nm was monitored. The final concentrations were 16 μM peptides. After creating the mutant-hIAPP polypeptides of the present disclosure, applicants tested the propensity of the different analogs to form amyloid at pH 7.4 using thioflavin-T fluorescence assays (FIGS. 2A-D) and TEM (FIGS. 3A-E). […] Amyloid formation follows a sigmoidal time course consisting of a lag phase in which few, if any, fibrils are formed, followed by a growth phase and a saturation phase in which amyloid fibrils are in equilibrium with soluble peptide.

[4] = pH 7
Method: 100 μL each solution was obtained immediately following dissolution with Novolin-N® and was centrifuged using a Beckman Coulter Microfuge (22R Centrifuge) at 24° C. for 20 minutes. The relative centrifugal force used was 1.75×104 g. Aliquots of each sample were immediately frozen and lyophilized. The remaining portion of each sample was not centrifuged and were incubated at 25° C. without stirring. Samples were collected again following the same procedures after 1 day, 7 days and 30 days. Dry samples were redissolved in 4:1 HPLC buffer mix (4A:1B, below) and immediately injected for liquid chromatography-mass spectroscopy (LC-MS) measurements. The HPLC buffers were (A) H2O (0.1% acetic acid and 0.02% TFA) and (B) CH3CN (0.1% acetic acid and 0.02% TFA). Solubility of each co-formulated sample was determined by measuring the absorbance from the liquid chromatogram traces at 215±8 nm and at 277±8 nm at each time point tested. points (0 hours, 24 hours, 7 days and 30 days post-formulation).

[5] = target: T1, human calcitonin receptor (hCT(a)) (Homo sapiens, UniProt P30988); experiment: cAMP production (LANCE cAMP assay) in transfected Cos-7 cells; format: cell-based; settings: cAMP production, Cos-7 cells expressing hCT(a); mean ± spread; read-out: Human calcitonin receptor binding data pEC50 (converted)
T1 construct: expressed in transfected cells; host or cells: Cos-7 cells, transient transfection with PEI, pcDNA3.1 vectors
T1 sequence (P30988 25-474): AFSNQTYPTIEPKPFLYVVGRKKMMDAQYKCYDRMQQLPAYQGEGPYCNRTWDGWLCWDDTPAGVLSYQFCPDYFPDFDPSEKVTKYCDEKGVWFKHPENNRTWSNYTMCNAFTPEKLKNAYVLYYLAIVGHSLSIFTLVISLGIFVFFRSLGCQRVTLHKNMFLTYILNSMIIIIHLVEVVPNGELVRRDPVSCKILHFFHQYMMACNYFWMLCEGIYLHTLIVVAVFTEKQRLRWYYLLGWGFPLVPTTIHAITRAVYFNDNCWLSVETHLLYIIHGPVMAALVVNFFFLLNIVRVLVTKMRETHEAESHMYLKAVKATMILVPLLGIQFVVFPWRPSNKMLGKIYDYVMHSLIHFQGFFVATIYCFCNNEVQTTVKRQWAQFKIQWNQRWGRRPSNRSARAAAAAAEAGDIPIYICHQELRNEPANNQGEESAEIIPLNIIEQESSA
Method: (§1) Cell Culture and Transfection. Cos-7 cells were cultured and transfected for receptor activity assays as previously described in Bailey, R. J., and Hay, D. L. Peptides (2006) 27, pp. 1367-1375, the entire contents of which is incorporated herein by reference. Specifically, cells were cultured in Dulbucco's modified eagle medium (DMEM) with 8% heat-inactivated fetal bovine serum (FBS) and kept in a 37° C. humidified 95% air/5% CO2 incubator. Cells were plated at a density of 18,000-20,000 cells/well (depending on cell passage) in 96-well culture plate and returned to the incubator for approximately 18-24 hours. Transient transfections were carried out using polyethyleneimine (PEI) as described previously and maintained at 37° C. in a humidified 95% air/5% CO2 incubator for 36-48 hours. All DNA constructs used in this these were in pcDNA3.1 vectors.
(§2) cAMP Assay: Measurement of intracellular cAMP was achieved using a time-resolved fluorescent resonance energy transfer assay (LANCE cAMP assay, PerkinElmer), similar to the previously described Alphascreen assay as described in Gingell, J. J., et al. Peptides (2010) 31, pp. 1400-1404, with the following changes. Following stimulation with peptide agonist, cAMP assay media from the wells was thoroughly aspirated and 50 μl of ice-cold absolute ethanol added to each well. Plates were then placed in a −30° C. freezer for 10 minutes or overnight prior to assay, then removed and allowed to air dry in a fume hood for 1-2 hours. After ethanol evaporated from the plates, 50 μl of LANCE detection buffer (lysis buffer, 0.35% Triton X-100, 50 mM HEPES and 10 mM calcium chloride in ddH2O, pH 7.4) was added per well and left on a plate shaker for 10-15 minutes at room temperature. Meanwhile, a cAMP standard curve was generated using LANCE detection buffer and a serially diluted cAMP standard (50 μM) ranging from 1 μM to 10 pM. The serially diluted cAMP standards (5 μl) and cell lysates (5 μl) were transferred into 384-well opti-plates and sealed with a Sealplate®-A-384-well microplate adhesive film and briefly centrifuged (10 seconds, 500 rpm, 23° C.). A 1:200 dilution of LANCE assay Alexa Fluor® 647 anti-cAMP antibody was prepared in detection buffer and 5 μl added to each well. Plates were sealed and briefly centrifuged again (10 seconds, 500 rpm, 23° C.) and left to incubate, sealed for 30 minutes at room temperature. During this incubation, detection mix was made up consisting of detection buffer, Europium-W8044 labelled streptavidin (1:4500) and biotin-cAMP (1:1500). After 30 minutes incubation, 10 μl of detection mix was added to each well, plates were centrifuged (30 seconds, 500 rpm, 23° C.), sealed and left to incubate for 1 hour at room temperature. Plates were read after an overnight incubation on an Envision plate reader. A standard curve was included in each experiment to ensure accurate quantification of cAMP.
(§3) Data Analysis for Receptor Assays: Data were derived from independent experiments for statistical analysis and all experiments were performed and replicated. Quantification of cAMP was obtained from a standard curve included in each experiment and plotted using the software GraphPad Prism 6.0 (GraphPad Software Inc, San Diego, Calif., USA) with a non-linear regression 3-parameter logistic equation with a Hill Slope of 1 to determine the pEC50. The pEC50 values from the fits were combined from different experimental days and statistically tested for difference from the WT peptide using the Student's t-test with statistical significance defined as * p<0.05, ** p<0.01, *** p<0.001. Due to variability in amount of cAMP produced between experimental days, data were normalized to the control peptide for each experiment to obtain Emax values. For each analogue, data were normalized to the maximum (Emax) and minimum (Emin) responses of h-amylin. […]

[6] = target: T2, human amylin receptor (hAMY1(a)) (Homo sapiens, UniProt O60894+P30988); experiment: as above; format: cell-based; settings: cAMP production, Cos-7 cells expressing hAMY1(a); mean ± spread; read-out: Human Amylin1(a) receptor binding data pEC50 (converted)
T2 construct: expressed in transfected cells; host or cells: Cos-7 cells, transient transfection with PEI, pcDNA3.1 vectors
Method: as §1, §2, §3

T2 sequence (O60894 27-148 partner, one chain of several): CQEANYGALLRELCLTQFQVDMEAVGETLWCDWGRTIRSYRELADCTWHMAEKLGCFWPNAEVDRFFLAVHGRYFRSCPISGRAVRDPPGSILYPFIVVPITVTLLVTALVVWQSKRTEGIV

amyloid aggregates in TEM images [1] | EC50 [5] [nM] | EC50 [6] [nM] | amyloid fibrils in TEM images ([1]; after 1 week and 6 week time periods) | SMILES | solubility at neutral pH (absorbance of supernatant at 280 nm) [2] | amyloid formation monitored by thioflavin-T fluorescence [3] | solubility co-formulated with Novolin-N (absorbance at 215 nm and 277 nm, LC-MS) [4] | time at which amyloid formation reaches the saturation phase ([3]; 32 μM thioflavin-T) [h]
no aggregates are observed | 2.4 | 0.741 |  | CC[C@H](C)[C@H](NC(=O)[C@H](C)NC(=O)CNC(=O)[C@H](Cc1ccccc1)NC(=O)[C@H](CC(N)=O)NC(=O)[C@H](CCCCN)NC(=O)[C@H](CO)NC(=O)[C@H](CO)NC(=O)[C@H](Cc1c[nH]cn1)NC(=O)[C@@H](NC(=O)[C@H](CC(C)C)NC(=O)[C@H](Cc1ccccc1)NC(=O)[C@H](CC(N)=O)NC(=O)[C@H](C)NC(=O)[C@H](CC(C)C)NC(=O)[C@H](CCCNC(=N)N)NC(=O)[C@H](CCC(N)=O)NC(=O)[C@@H](NC(=O)[C@H](C)NC(=O)[C@@H]1CSSC[C@H](NC(=O)[C@@H](N)CCCCN)C(=O)N[C@@H](CC(N)=O)C(=O)N[C@@H]([C@@H](C)O)C(=O)N[C@@H](C)C(=O)N[C@@H]([C@@H](C)O)C(=O)N1)[C@@H](C)O)C(C)C)C(=O)N[C@@H](CC(C)C)C(=O)N[C@@H](CO)C(=O)N[C@@H](CO)C(=O)N[C@H](C(=O)N[C@@H](CC(N)=O)C(=O)N[C@H](C(=O)NCC(=O)N[C@@H](CO)C(=O)N[C@@H](CCCCN)C(=O)N[C@H](C(=O)N[C@@H](Cc1ccc(O)cc1)C(N)=O)[C@@H](C)O)C(C)C)[C@@H](C)O [SEQ ID NO: 7] (HELM PEPTIDE1{K.C.N.T.A.T.C.A.T.Q.R.L.A.N.F.L.V.H.S.S.K.N.F.G.A.I.L.S.S.T.N.V.G.S.K.T.Y.[am]}$PEPTIDE1,PEPTIDE1,2:R3-7:R3$$$V2.0) | more substantially soluble than wild-type hIAPP | none of the mutant hIAPP polypeptides forms amyloid | significantly higher absorbance when compared to both wild-type hIAPP and paramlintide | 
no aggregates are observed | 10.7 | 1.78 |  | CC(C)C[C@H](NC(=O)[C@H](CCCNC(=N)N)NC(=O)[C@H](CCC(N)=O)NC(=O)[C@@H](NC(=O)[C@H](C)NC(=O)[C@@H]1CSSC[C@H](NC(=O)[C@@H](N)CCCCN)C(=O)N[C@@H](CC(N)=O)C(=O)N[C@@H]([C@@H](C)O)C(=O)N[C@@H](C)C(=O)N[C@@H]([C@@H](C)O)C(=O)N1)[C@@H](C)O)C(=O)N[C@@H](C)C(=O)N[C@@H](CC(N)=O)C(=O)N[C@@H](Cc1ccccc1)C(=O)N[C@@H](CC(C)C)C(=O)N[C@H](C(=O)N[C@@H](Cc1c[nH]cn1)C(=O)N[C@@H](CO)C(=O)N[C@@H](CO)C(=O)N[C@@H](CCCCN)C(=O)N[C@@H](CC(N)=O)C(=O)N[C@@H](Cc1ccccc1)C(=O)N1CCC[C@H]1C(=O)N[C@@H](C)C(=O)N1CCC[C@H]1C(=O)N[C@@H](CC(C)C)C(=O)N[C@@H](CO)C(=O)N[C@@H](CO)C(=O)N[C@H](C(=O)N[C@@H](CC(N)=O)C(=O)N[C@H](C(=O)NCC(=O)N[C@@H](CO)C(=O)N[C@@H](CCCCN)C(=O)N[C@H](C(=O)N[C@@H](Cc1ccc(O)cc1)C(N)=O)[C@@H](C)O)C(C)C)[C@@H](C)O)C(C)C [SEQ ID NO: 8] (HELM PEPTIDE1{K.C.N.T.A.T.C.A.T.Q.R.L.A.N.F.L.V.H.S.S.K.N.F.P.A.P.L.S.S.T.N.V.G.S.K.T.Y.[am]}$PEPTIDE1,PEPTIDE1,2:R3-7:R3$$$V2.0) | more substantially soluble than wild-type hIAPP | none of the mutant hIAPP polypeptides forms amyloid | significantly higher absorbance when compared to both wild-type hIAPP and paramlintide | 
extensive amounts of amyloid fibers |  |  | typical amyloid fibril morphology | CC[C@H](C)[C@H](NC(=O)[C@H](C)NC(=O)CNC(=O)[C@H](Cc1ccccc1)NC(=O)[C@H](CC(N)=O)NC(=O)[C@H](CC(N)=O)NC(=O)[C@H](CO)NC(=O)[C@H](CO)NC(=O)[C@H](Cc1c[nH]cn1)NC(=O)[C@@H](NC(=O)[C@H](CC(C)C)NC(=O)[C@H](Cc1ccccc1)NC(=O)[C@H](CC(N)=O)NC(=O)[C@H](C)NC(=O)[C@H](CC(C)C)NC(=O)[C@H](CCCNC(=N)N)NC(=O)[C@H](CCC(N)=O)NC(=O)[C@@H](NC(=O)[C@H](C)NC(=O)[C@@H]1CSSC[C@H](NC(=O)[C@@H](N)CCCCN)C(=O)N[C@@H](CC(N)=O)C(=O)N[C@@H]([C@@H](C)O)C(=O)N[C@@H](C)C(=O)N[C@@H]([C@@H](C)O)C(=O)N1)[C@@H](C)O)C(C)C)C(=O)N[C@@H](CC(C)C)C(=O)N[C@@H](CO)C(=O)N[C@@H](CO)C(=O)N[C@H](C(=O)N[C@@H](CC(N)=O)C(=O)N[C@H](C(=O)NCC(=O)N[C@@H](CO)C(=O)N[C@@H](CC(N)=O)C(=O)N[C@H](C(=O)N[C@@H](Cc1ccc(O)cc1)C(N)=O)[C@@H](C)O)C(C)C)[C@@H](C)O [Wild-type hIAPP, reference compound] |  | forms significant amounts of amyloid |  | ≤ 30
